Measurements as given in article PMC3702004, “Comparison of Intake and Systemic Relative Effect Potencies of Dioxin-like Compounds in Female Mice after a Single Oral Dose” (Environmental Health Perspectives, 2013).

Assay: Body and organ weight, hepatic lipid content
Assay type: in vivo, female C57BL/6 mice
Conditions: day 3; for % lipid / g liver: pooled liver samples; for Dose with significant increase in liver weight vs vehicle controls / Dose with statistically significant decrease in relative thymus weight vs vehicle controls: single oral dose
Procedure: Animals. Eight-week-old female C57BL/6 mice (Harlan laboratories, Venray, the Netherlands) were randomly assigned to treatment groups (six animals per group) and allowed to acclimate for 1.5 weeks. The animals were housed in groups in standard cages and conditions (23 ± 2°C, 50–60% relative humidity, 12-hr dark/light cycle) with free access to food and water. Mice received a single dose of test compound by oral gavage at a dosing volume of 10 mL/kg body weight (BW). Mice treated with corn oil vehicle (10 mL/kg BW) served as controls. For each congener, five different doses were administered, ranging from 0.5–100 μg/kg BW (TCDD) to 5,000–500,000 µg/kg BW (PCB-153). Detailed information on doses is provided in Supplemental Material, Table S1 (http://dx.doi.org/10.1289/ehp.1206336). On day 3 after dosing, animals were euthanized by CO2/O2 asphyxiation, and blood was immediately collected from the abdominal aorta. The liver, thymus, spleen, and adipose tissue were removed, weighed (liver, thymus, and spleen), snap frozen, and stored at –80°C. All animal treatments were performed with permission of the Animal Ethical Committee (DEC Utrecht) and performed according to the [Law on Animal Experiments (1977)]. Animals were treated humanely and with regard for alleviation of suffering.
Compound analysis. Adipose and liver tissues samples were homogenized in Na2SO4, followed by extraction and clean-up in one step, and then eluted with 200 mL 1:1 hexane:dichloromethane on an open column packed with 40% wt/wt H2SO4-impregnated silica and KOH-silica. Blood plasma samples were extracted on an open column using Chem-Elut (Agilent Technologies, Santa Clara, CA, USA) and then NaCl eluted with 75 mL 3:2 hexane:2-propanol. Clean-up was performed using a miniaturized silica column (as described above), and samples were eluted using 30 mL hexane. Because the samples typically contained high levels of the analytes, only a small fraction was evaporated and analyzed. Prior to evaporation, we spiked a fraction of the samples with ^13C-labeled standards. We checked potential loss of analytes during extraction and clean-up by reextracting the samples using the identical protocol used for the samples. […] Tetradecane was added prior to evaporation. Sample analysis followed the U.S. Environmental Protection Agency Method 1613 ([U.S. Environmental Protection Agency 1994]) using single ion monitoring mode on an Agilent 6809N gas chromatograph (Agilent Technologies) coupled with a Micromass Ultima Autospec Ultra high-resolution mass spectrometer (HRMS; Waters Corp., Milford, MA, USA). Compounds were separated on a 60 m × 0.25 mm DB5-MS column ([…]; J&W Scientific, Folsom, CA, USA). The HRMS was operated with electron impact ionization with electron energy of 35 eV and an ion source temperature of 250°C. To reduce the number of analyses, samples were pooled before clean-up. […] This method was used because full congener–specific separation could be achieved on the high-resolution GC–HRMS. For lipid determination, samples were evaporated to dryness after the extraction step, and the amount of lipids was determined gravimetrically. Concentrations were calculated based on lipid weight and wet weight. The analysis of samples for the PCB-118 5,000 μg/kg BW dose failed during the procedure; thus analysis for this group could not be completed.
Statistical analysis. Statistical significant differences of the means and variances were determined using one-way analysis of variance (ANOVA) followed by Tukey-Kramer multiple comparisons. Differences were considered statistically significant at p < 0.05. Statistical calculations were performed using GraphPad 6.01 (GraphPad Software Inc.).

Clc1cc(Cl)c(-c2cc(Cl)c(Cl)cc2Cl)cc1Cl [PCB-153, 2,2´,4,4´,5,5´-hexachlorobiphenyl]
Body weight (oral dose 5000 µg/kg bw): 18.8 ± 1.1 gram | Liver weight (oral dose 5000 µg/kg bw): 4.71 ± 0.34 % of bw | Spleen weight (oral dose 5000 µg/kg bw): 0.30 ± 0.04 % of bw | Thymus weight (oral dose 5000 µg/kg bw): 0.25 ± 0.05 % of bw | % lipid / g liver (oral dose 5000 µg/kg bw): 3.3% | Body weight (oral dose 15000 µg/kg bw): 19.1 ± 0.5 gram | Liver weight (oral dose 15000 µg/kg bw): 4.96 ± 0.10 % of bw | Spleen weight (oral dose 15000 µg/kg bw): 0.36 ± 0.04 % of bw | Thymus weight (oral dose 15000 µg/kg bw): 0.26 ± 0.04 % of bw | % lipid / g liver (oral dose 15000 µg/kg bw): 3.9% | Body weight (oral dose 50000 µg/kg bw): 19.6 ± 0.8 gram | Liver weight (oral dose 50000 µg/kg bw): 5.15 ± 0.38 % of bw | Spleen weight (oral dose 50000 µg/kg bw): 0.33 ± 0.04 % of bw | Thymus weight (oral dose 50000 µg/kg bw): 0.29 ± 0.03 % of bw | % lipid / g liver (oral dose 50000 µg/kg bw): 3.4% | Body weight (oral dose 150000 µg/kg bw): 19.9 ± 1.1 gram | Liver weight (oral dose 150000 µg/kg bw): 5.47 ± 0.37 % of bw | Spleen weight (oral dose 150000 µg/kg bw): 0.34 ± 0.05 % of bw | Thymus weight (oral dose 150000 µg/kg bw): 0.25 ± 0.04 % of bw | Body weight (oral dose 500000 µg/kg bw): 18.8 ± 0.7 gram | Liver weight (oral dose 500000 µg/kg bw): 5.80 ± 0.30 % of bw | Spleen weight (oral dose 500000 µg/kg bw): 0.33 ± 0.05 % of bw | Thymus weight (oral dose 500000 µg/kg bw): 0.24 ± 0.04 % of bw | Dose with significant increase in liver weight vs vehicle controls: ≥ 500,000 µg/kg BW | Dose with statistically significant decrease in relative thymus weight vs vehicle controls: 500,000 μg/kg BW

Clc1cc2oc3c(Cl)c(Cl)c(Cl)cc3c2cc1Cl [Congener 4-PeCDF, 2,3,4,7,8-pentachlorodibenzofuran]
Body weight (oral dose 5 µg/kg bw): 19.3 ± 1.2 gram | Liver weight (oral dose 5 µg/kg bw): 5.37 ± 0.32 % of bw | Spleen weight (oral dose 5 µg/kg bw): 0.29 ± 0.05 % of bw | Thymus weight (oral dose 5 µg/kg bw): 0.26 ± 0.07 % of bw | % lipid / g liver (oral dose 5 µg/kg bw): 3.6% | Body weight (oral dose 25 µg/kg bw): 19.0 ± 1.1 gram | Liver weight (oral dose 25 µg/kg bw): 5.32 ± 0.19 % of bw | Spleen weight (oral dose 25 µg/kg bw): 0.33 ± 0.04 % of bw | Thymus weight (oral dose 25 µg/kg bw): 0.24 ± 0.04 % of bw | % lipid / g liver (oral dose 25 µg/kg bw): 4.5% | Body weight (oral dose 100 µg/kg bw): 19.2 ± 1.0 gram | Liver weight (oral dose 100 µg/kg bw): 5.94 ± 0.27 % of bw | Spleen weight (oral dose 100 µg/kg bw): 0.32 ± 0.03 % of bw | Thymus weight (oral dose 100 µg/kg bw): 0.22 ± 0.04 % of bw | % lipid / g liver (oral dose 100 µg/kg bw): 4.5% | Body weight (oral dose 250 µg/kg bw): 19.8 ± 1.0 gram | Liver weight (oral dose 250 µg/kg bw): 6.05 ± 0.42 % of bw | Spleen weight (oral dose 250 µg/kg bw): 0.34 ± 0.04 % of bw | Thymus weight (oral dose 250 µg/kg bw): 0.23 ± 0.03 % of bw | Body weight (oral dose 1000 µg/kg bw): 20.2 ± 1.1 gram | Liver weight (oral dose 1000 µg/kg bw): 6.35 ± 0.30 % of bw | Spleen weight (oral dose 1000 µg/kg bw): 0.32 ± 0.02 % of bw | Thymus weight (oral dose 1000 µg/kg bw): 0.22 ± 0.04 % of bw | Dose with significant increase in liver weight vs vehicle controls: ≥ 100 µg/kg BW

Clc1ccc(-c2cc(Cl)c(Cl)c(Cl)c2Cl)cc1Cl [PCB-156, 2,3,3´,4,4´,5-hexachlorobiphenyl]
Body weight (oral dose 5000 µg/kg bw): 17.7 ± 0.7 gram | Liver weight (oral dose 5000 µg/kg bw): 4.71 ± 0.43 % of bw | Spleen weight (oral dose 5000 µg/kg bw): 0.27 ± 0.03 % of bw | Thymus weight (oral dose 5000 µg/kg bw): 0.21 ± 0.05 % of bw | % lipid / g liver (oral dose 5000 µg/kg bw): 3.0% | Body weight (oral dose 15000 µg/kg bw): 18.7 ± 1.3 gram | Liver weight (oral dose 15000 µg/kg bw): 5.14 ± 0.41 % of bw | Spleen weight (oral dose 15000 µg/kg bw): 0.30 ± 0.03 % of bw | Thymus weight (oral dose 15000 µg/kg bw): 0.23 ± 0.04 % of bw | % lipid / g liver (oral dose 15000 µg/kg bw): 3.3% | Body weight (oral dose 50000 µg/kg bw): 18.0 ± 0.9 gram | Liver weight (oral dose 50000 µg/kg bw): 5.96 ± 0.62 % of bw | Spleen weight (oral dose 50000 µg/kg bw): 0.31 ± 0.04 % of bw | Thymus weight (oral dose 50000 µg/kg bw): 0.25 ± 0.02 % of bw | % lipid / g liver (oral dose 50000 µg/kg bw): 5.7% | Body weight (oral dose 150000 µg/kg bw): 19.2 ± 1.1 gram | Liver weight (oral dose 150000 µg/kg bw): 6.79 ± 0.51 % of bw | Spleen weight (oral dose 150000 µg/kg bw): 0.29 ± 0.02 % of bw | Thymus weight (oral dose 150000 µg/kg bw): 0.21 ± 0.04 % of bw | % lipid / g liver (oral dose 150000 µg/kg bw): 6.8% | Body weight (oral dose 500000 µg/kg bw): 18.7 ± 0.6 gram | Liver weight (oral dose 500000 µg/kg bw): 8.10 ± 0.17 % of bw | Spleen weight (oral dose 500000 µg/kg bw): 0.33 ± 0.03 % of bw | Thymus weight (oral dose 500000 µg/kg bw): 0.18 ± 0.05 % of bw | Dose with significant increase in liver weight vs vehicle controls: ≥ 50,000 µg/kg BW

Clc1cc2c(cc1Cl)Oc1cc(Cl)c(Cl)cc1O2 [TCDD, 2,3,7,8-tetrachlorodibenzodioxin, reference compound]
Body weight (oral dose 0.5 µg/kg bw): 19.3 ± 0.8 gram | Liver weight (oral dose 0.5 µg/kg bw): 5.08 ± 0.27 % of bw | Spleen weight (oral dose 0.5 µg/kg bw): 0.34 ± 0.05 % of bw | Thymus weight (oral dose 0.5 µg/kg bw): 0.28 ± 0.06 % of bw | % lipid / g liver (oral dose 0.5 µg/kg bw): 5.3% | Body weight (oral dose 2.5 µg/kg bw): 19.2 ± 1.3 gram | Liver weight (oral dose 2.5 µg/kg bw): 5.37 ± 0.20 % of bw | Spleen weight (oral dose 2.5 µg/kg bw): 0.32 ± 0.05 % of bw | Thymus weight (oral dose 2.5 µg/kg bw): 0.23 ± 0.05 % of bw | % lipid / g liver (oral dose 2.5 µg/kg bw): 7.2% | Body weight (oral dose 10 µg/kg bw): 18.8 ± 1.1 gram | Liver weight (oral dose 10 µg/kg bw): 5.49 ± 0.37 % of bw | Spleen weight (oral dose 10 µg/kg bw): 0.30 ± 0.04 % of bw | Thymus weight (oral dose 10 µg/kg bw): 0.18 ± 0.06 % of bw | % lipid / g liver (oral dose 10 µg/kg bw): 7.4% | Body weight (oral dose 25 µg/kg bw): 19.6 ± 0.8 gram | Liver weight (oral dose 25 µg/kg bw): 5.86 ± 0.22 % of bw | Spleen weight (oral dose 25 µg/kg bw): 0.34 ± 0.02 % of bw | Thymus weight (oral dose 25 µg/kg bw): 0.23 ± 0.02 % of bw | Body weight (oral dose 100 µg/kg bw): 19.4 ± 0.6 gram | Liver weight (oral dose 100 µg/kg bw): 6.09 ± 0.44 % of bw | Spleen weight (oral dose 100 µg/kg bw): 0.34 ± 0.02 % of bw | Thymus weight (oral dose 100 µg/kg bw): 0.19 ± 0.04 % of bw | Dose with significant increase in liver weight vs vehicle controls: ≥ 10 µg/kg BW | Dose with statistically significant decrease in relative thymus weight vs vehicle controls: ≥ 2.5 μg/kg BW
